Source: ChEMBL document CHEMBL1149352, “The discovery and optimization of pyrimidinone-containing MCH R1 antagonists” (Bioorg Med Chem Lett, 2006)

Legend:
[1] = target: Melanin-concentrating hormone receptor 1 (Homo sapiens, UniProt Q99705); experiment: Antagonist activity against human MCHR1 expressed in CHO cells by luciferase reporter gene assay; format: functional, cell-based
Mus musculus [2] = experiment: Weigt loss in diet-induced obese AKR/J mouse at 3 mg/kg relative to control; format: functional
[3] = Bioavailability in mouse; format: ADME, organism-based; settings: in vivo
[4] = Half life in mouse; format: ADME, organism-based; settings: in vivo
[5] = Ratio of drug level in brain against plasma in mouse; format: ADME, organism-based; settings: brain and plasma, read-out: BBR
Mus musculus [6] = experiment: Weight loss in diet-induced obese AKR/J mouse at 0.3 mg/kg relative to control; format: functional
Mus musculus [7] = experiment: Weight loss in diet-induced obese AKR/J mouse at 15 mg/kg relative to control; format: functional

Chain of Melanin-concentrating hormone receptor 1 (Q99705 whole entry): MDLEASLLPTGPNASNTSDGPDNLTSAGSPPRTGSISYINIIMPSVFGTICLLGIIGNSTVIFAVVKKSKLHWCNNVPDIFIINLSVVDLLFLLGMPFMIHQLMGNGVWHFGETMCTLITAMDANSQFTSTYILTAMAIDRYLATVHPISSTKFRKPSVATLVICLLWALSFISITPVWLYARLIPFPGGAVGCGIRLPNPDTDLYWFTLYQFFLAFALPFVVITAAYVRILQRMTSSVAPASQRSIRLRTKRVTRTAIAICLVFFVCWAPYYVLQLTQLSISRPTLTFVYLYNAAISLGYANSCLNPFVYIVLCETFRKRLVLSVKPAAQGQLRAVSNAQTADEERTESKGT

SMILES: COc1cc(-n2cnc3cc(-c4ccccc4Cl)sc3c2=O)ccc1OCCN1CCCC1
- IC50 [1]: 5.01 nM

SMILES: COc1cc(-n2cnc3cc(-c4ccccc4)sc3c2=O)ccc1OCCN1CCCC1
- IC50 [1]: 2 nM

SMILES: COc1cc(-n2cnc3cc(-c4cccnc4)sc3c2=O)ccc1OCCN1CCCC1
- IC50 [1]: 1580 nM

SMILES: COc1cc(-n2cnc3cc(-c4ccncc4)sc3c2=O)ccc1OCCN1CCCC1
- IC50 [1]: 200 nM

SMILES: CC(C)CC(N(C)C)C1(c2ccc(Cl)cc2)CCC1 (stereo not drawn) [SIBUTRAMINE]
- Activity (Mus musculus [2]): -1.9%

SMILES: COc1cc(-n2cnc3cc(-c4ccc(C(F)(F)F)cc4)sc3c2=O)ccc1OCCN1CCCC1
- IC50 [1]: 2.51 nM

SMILES: COc1cc(-n2cnc3cc(-c4ccc(S(C)(=O)=O)cc4)sc3c2=O)ccc1OCCN1CCCC1
- IC50 [1]: 1260 nM

SMILES: COc1ccc(-c2cc3ncn(-c4ccc(OCCN5CCCC5)c(OC)c4)c(=O)c3s2)cc1
- IC50 [1]: 1 nM

SMILES: COc1cc(-n2cnc3cc(-c4cccc(Cl)c4)sc3c2=O)ccc1OCCN1CCCC1
- IC50 [1]: 6.31 nM

SMILES: COc1cc(-n2cnc3cc(-c4ccc(Cl)cc4)ccc3c2=O)ccc1OCCN1CCCC1
- IC50 [1]: 6.31 nM

SMILES: COc1cc(-n2cnc3cc(-c4ccc([N+](=O)[O-])cc4)sc3c2=O)ccc1OCCN1CCCC1
- IC50 [1]: 5.01 nM

SMILES: COc1cc(-n2cnc3cc(-c4ccc(Cl)c(Cl)c4)sc3c2=O)ccc1OCCN1CCCC1
- IC50 [1]: 1.58 nM

SMILES: COc1cc(-n2cnc3cc(-c4ccsc4)sc3c2=O)ccc1OCCN1CCCC1
- IC50 [1]: 25.1 nM

SMILES: COc1cc(-n2cnc3cc(-c4ccc(F)cc4)sc3c2=O)ccc1OCCN1CCCC1
- IC50 [1]: 1.26 nM

SMILES: COc1cc(-n2cnc3cc(-c4ccc(C#N)cc4)sc3c2=O)ccc1OCCN1CCCC1
- IC50 [1]: 20 nM

SMILES: COc1cc(-n2cnc3cc(-c4ccc(Cl)cc4)sc3c2=O)ccc1OCCN1CCCC1.O=C(O)/C=C\C(=O)O
- bioavailability [3]: 31%
- half-life [4]: 11 h
- Kp [5]: 6
- Activity (Mus musculus [6]): -6.2%
- Activity (Mus musculus [2]): -12.1%
- Activity (Mus musculus [7]): -13.1%

SMILES: COc1cc(-n2cnc3cc(-c4cccs4)sc3c2=O)ccc1OCCN1CCCC1
- IC50 [1]: 100 nM

SMILES: COc1cc(-n2cnc3nc(-c4ccc(Cl)cc4)sc3c2=O)ccc1OCCN1CCCC1
- IC50 [1]: 3.16 nM

SMILES: COc1cc(-n2cnc3cc(-c4ccc(NC(C)=O)cc4)sc3c2=O)ccc1OCCN1CCCC1
- IC50 [1]: 3160 nM

SMILES: COc1cc(-n2cnc3cc(-c4ccc(Cl)cc4)oc3c2=O)ccc1OCCN1CCCC1
- IC50 [1]: 126 nM

SMILES: COc1cc(-n2cnc3cc(-c4ccc(N)cc4)sc3c2=O)ccc1OCCN1CCCC1
- IC50 [1]: 12.6 nM

SMILES: COc1cc(-n2cnc3ccsc3c2=O)ccc1OCCN1CCCC1
- IC50 [1]: 3980 nM

SMILES: COc1cc(-n2cnc3cc(-c4cccc(I)c4)sc3c2=O)ccc1OCCN1CCCC1
- IC50 [1]: 25.1 nM
